Results taken from US20200093103A1, “BREEDING WATER FOR ANGUILLIFORMES AND METHOD FOR REARING ANGUILLIFORMES” (SHIN NIPPON BIOMEDICAL LABORATORIES, LTD., priority 2016, published 2020).

Test system: Anguilla japonica leptocephali
Experiment: Induction of Anguilla japonica metamorphosis by T4 treatment in 23° C. breeding water
Type: in vivo
Parameters: key: L: During life, no characteristics of metamorphosis seen.; Stage 1: Starting phase of metamorphosis. The rostral end is rounded, and intestinal degeneration starts.; Stage 2: Peak phase of metamorphosis. Intestinal degeneration becomes pronounced.; Stage 3: Late phase of metamorphosis.; Stage 4: Pre-glass eel stage. Almost the eel form, but the body height still remains
Excerpt: Stage 1: Starting phase of metamorphosis. The rostral end is rounded, and intestinal degeneration starts.
Stage 2: Peak phase of metamorphosis. Intestinal degeneration becomes pronounced. In the second half, the anus reaches to near the last vertical blood vessel (VBV last).
Stage 3: Late phase of metamorphosis. The preanal length (PAL) becomes equal to or shorter than the last vertical blood vessel length (VBV last Length) (PAL VBV last Length). The body height is apparently low.
Stage 4: Pre-glass eel stage. Almost the eel form, but the body height still remains. Melanophores on the body surface or endogenous melanophores are not yet seen.
Elver stage: Juvenile stage. Food intake can be identified.
A thyroid hormone (e.g., thyroxine (T4)) is adjusted to 50 to 100 mM in a 1- to 2-mL volume messflask. As a solvent, known solvents (water, alcohol) can be used. Ethanol is preferably used as the solvent.
For example, using ethanol as a solvent, T4 adjusted to 50 mM is diluted 500-fold, 5,000-fold, and 50,000-fold, respectively, and adjusted to […], 1 μM, and 100 nM. A feed can be prepared in this manner.
Artificial seawater is added to a breeding vessel, and 1/1000 of the […] T4 is added to prepare […] T4 breeding water.
Half of the breeding water is replaced every two days with breeding water of the same concentration. In the case where the concentration is changed, for example, in the case of changing from 10 nM to 2 nM, 80% to the breeding water is removed, and unadjusted artificial seawater is newly added to make 1 L.
Leptocephali visually considered to have reached a total length of 40 mm (or may be 30 mm to 50 mm, may be 35 mm to 45 mm, or may also be 35 mm or more, 40 mm or more, or 45 mm or more) are selected, anesthetized with 2-phenoxyethanol, and then photographed, and the total length of each larva is measured using an image analyzing device.
The larvae are placed in 10 nM T4 breeding water and then placed in an incubator set at 23° C., and breeding is started. In first one week, observation is performed every two days, and half of the 10 nM T4 breeding water is replaced each time. The average amount of thyroid hormone in the breeding water in stage 1 is 1 nM to 100 nM, for example, and may also be 3 nM to 30 nM, or 5 nM to 20 nM.
For larvae visually judged to have reached the second half of stage 2, the concentration of the breeding water is changed. The breeding water is diluted 5-fold or 10-fold and adjusted to 2 nM or 1 nM T4, and breeding is continued. The average amount of thyroid hormone in the breeding water in stage 2 may be, as compared with the breeding water of stage 1, diluted 2-fold to 20-fold, diluted 3 to 15-fold, or diluted 5 to 10-fold as described above. The average amount of thyroid hormone in the breeding water in stage 2 is 0.1 nM to 20 nM, for example, and may also be 0.5 nM to 10 nM, 1 nM to 5 nM, or 1 nM to 2 nM.
For larvae visually judged to have reached stage 3, the breeding water is quickly changed 0.2 nM T4 breeding water, which is a 5-fold dilution of 1 nM T4 breeding water, and further changed to 0.1 nM T4 breeding water on the following day. […] Also, in larvae whose anus position has not reached the last vertical hemal spine, when they are judged to be on the brink of stage 3, the concentration is changed as above. The average amount of thyroid hormone in the breeding water in stage 3 may be, as compared with the breeding water of stage 2, diluted 2-fold to 50-fold, diluted 3 to 15-fold, diluted 4 to 6-fold, or diluted 5-fold as described above. The average amount of thyroid hormone in the breeding water in stage 3 is 0.01 nM to 2 nM, for example, and may also be 0.05 nM to 1 nM, 0.1 nM to 0.5 nM, or 0.1 nM to 0.2 nM. […] That is, the concentration may be changed such that the thyroid hormone becomes undetectable in the breeding water in the course of stage 3.
In stage 3, breeding is continuously performed in the 0.1 nM T4 breeding water. […]

N[C@@H](Cc1cc(I)c(Oc2cc(I)c(O)c(I)c2)c(I)c1)C(=O)O [T4, thyroxine]
metamorphosis stage (individual Exp 5-4, 175 days old, total length 43.5 mm at start, c3 onward = treatment days 1,3,5,7,8,9,10,11,12,13,14,15,16,17,18, T4 (nM) 10,10,10,10,2,1,0.2,0.1,0.1,0.1,0.1,0.1, treatment day 1, T4 10 nM): L
metamorphosis stage (individual Exp 5-4, 175 days old, total length 43.5 mm at start, c3 onward = treatment days 1,3,5,7,8,9,10,11,12,13,14,15,16,17,18, T4 (nM) 10,10,10,10,2,1,0.2,0.1,0.1,0.1,0.1,0.1, treatment day 3, T4 10 nM): L
metamorphosis stage (individual Exp 5-4, 175 days old, total length 43.5 mm at start, c3 onward = treatment days 1,3,5,7,8,9,10,11,12,13,14,15,16,17,18, T4 (nM) 10,10,10,10,2,1,0.2,0.1,0.1,0.1,0.1,0.1, treatment day 5, T4 10 nM): 2
metamorphosis stage (individual Exp 5-4, 175 days old, total length 43.5 mm at start, c3 onward = treatment days 1,3,5,7,8,9,10,11,12,13,14,15,16,17,18, T4 (nM) 10,10,10,10,2,1,0.2,0.1,0.1,0.1,0.1,0.1, treatment day 7, T4 10 nM): 2
metamorphosis stage (individual Exp 5-4, 175 days old, total length 43.5 mm at start, c3 onward = treatment days 1,3,5,7,8,9,10,11,12,13,14,15,16,17,18, T4 (nM) 10,10,10,10,2,1,0.2,0.1,0.1,0.1,0.1,0.1, treatment day 8, T4 2 nM): 2
metamorphosis stage (individual Exp 5-4, 175 days old, total length 43.5 mm at start, c3 onward = treatment days 1,3,5,7,8,9,10,11,12,13,14,15,16,17,18, T4 (nM) 10,10,10,10,2,1,0.2,0.1,0.1,0.1,0.1,0.1, treatment day 9, T4 1 nM): 2
metamorphosis stage (individual Exp 5-4, 175 days old, total length 43.5 mm at start, c3 onward = treatment days 1,3,5,7,8,9,10,11,12,13,14,15,16,17,18, T4 (nM) 10,10,10,10,2,1,0.2,0.1,0.1,0.1,0.1,0.1, treatment day 10, T4 0.2 nM): 2
metamorphosis stage (individual Exp 5-4, 175 days old, total length 43.5 mm at start, c3 onward = treatment days 1,3,5,7,8,9,10,11,12,13,14,15,16,17,18, T4 (nM) 10,10,10,10,2,1,0.2,0.1,0.1,0.1,0.1,0.1, treatment day 11, T4 0.1 nM): 2
metamorphosis stage (individual Exp 5-4, 175 days old, total length 43.5 mm at start, c3 onward = treatment days 1,3,5,7,8,9,10,11,12,13,14,15,16,17,18, T4 (nM) 10,10,10,10,2,1,0.2,0.1,0.1,0.1,0.1,0.1, treatment day 12, T4 0.1 nM): 3
metamorphosis stage (individual Exp 5-4, 175 days old, total length 43.5 mm at start, c3 onward = treatment days 1,3,5,7,8,9,10,11,12,13,14,15,16,17,18, T4 (nM) 10,10,10,10,2,1,0.2,0.1,0.1,0.1,0.1,0.1, treatment day 13, T4 0.1 nM): 3
metamorphosis stage (individual Exp 5-4, 175 days old, total length 43.5 mm at start, c3 onward = treatment days 1,3,5,7,8,9,10,11,12,13,14,15,16,17,18, T4 (nM) 10,10,10,10,2,1,0.2,0.1,0.1,0.1,0.1,0.1, treatment day 14, T4 0.1 nM): 3
metamorphosis stage (individual Exp 5-4, 175 days old, total length 43.5 mm at start, c3 onward = treatment days 1,3,5,7,8,9,10,11,12,13,14,15,16,17,18, T4 (nM) 10,10,10,10,2,1,0.2,0.1,0.1,0.1,0.1,0.1, treatment day 15, T4 0.1 nM): 4
metamorphosis stage (individual Exp 5-5, 174 days old, total length 36.1 mm at start, c3 onward = treatment days 1,3,5,7,8,9,10,11,12,13,14,15,16,17, T4 (nM) 10,10,10,10,10,10,10,2,0.2,0.1,0.1,0.1,0.1,0.1, treatment day 1, T4 10 nM): L
metamorphosis stage (individual Exp 5-5, 174 days old, total length 36.1 mm at start, c3 onward = treatment days 1,3,5,7,8,9,10,11,12,13,14,15,16,17, T4 (nM) 10,10,10,10,10,10,10,2,0.2,0.1,0.1,0.1,0.1,0.1, treatment day 3, T4 10 nM): L
metamorphosis stage (individual Exp 5-5, 174 days old, total length 36.1 mm at start, c3 onward = treatment days 1,3,5,7,8,9,10,11,12,13,14,15,16,17, T4 (nM) 10,10,10,10,10,10,10,2,0.2,0.1,0.1,0.1,0.1,0.1, treatment day 5, T4 10 nM): L
metamorphosis stage (individual Exp 5-5, 174 days old, total length 36.1 mm at start, c3 onward = treatment days 1,3,5,7,8,9,10,11,12,13,14,15,16,17, T4 (nM) 10,10,10,10,10,10,10,2,0.2,0.1,0.1,0.1,0.1,0.1, treatment day 7, T4 10 nM): L
metamorphosis stage (individual Exp 5-5, 174 days old, total length 36.1 mm at start, c3 onward = treatment days 1,3,5,7,8,9,10,11,12,13,14,15,16,17, T4 (nM) 10,10,10,10,10,10,10,2,0.2,0.1,0.1,0.1,0.1,0.1, treatment day 8, T4 10 nM): 2
metamorphosis stage (individual Exp 5-5, 174 days old, total length 36.1 mm at start, c3 onward = treatment days 1,3,5,7,8,9,10,11,12,13,14,15,16,17, T4 (nM) 10,10,10,10,10,10,10,2,0.2,0.1,0.1,0.1,0.1,0.1, treatment day 9, T4 10 nM): 2
metamorphosis stage (individual Exp 5-5, 174 days old, total length 36.1 mm at start, c3 onward = treatment days 1,3,5,7,8,9,10,11,12,13,14,15,16,17, T4 (nM) 10,10,10,10,10,10,10,2,0.2,0.1,0.1,0.1,0.1,0.1, treatment day 10, T4 10 nM): 2
metamorphosis stage (individual Exp 5-5, 174 days old, total length 36.1 mm at start, c3 onward = treatment days 1,3,5,7,8,9,10,11,12,13,14,15,16,17, T4 (nM) 10,10,10,10,10,10,10,2,0.2,0.1,0.1,0.1,0.1,0.1, treatment day 11, T4 2 nM): 3
metamorphosis stage (individual Exp 5-5, 174 days old, total length 36.1 mm at start, c3 onward = treatment days 1,3,5,7,8,9,10,11,12,13,14,15,16,17, T4 (nM) 10,10,10,10,10,10,10,2,0.2,0.1,0.1,0.1,0.1,0.1, treatment day 12, T4 0.2 nM): 3
metamorphosis stage (individual Exp 5-5, 174 days old, total length 36.1 mm at start, c3 onward = treatment days 1,3,5,7,8,9,10,11,12,13,14,15,16,17, T4 (nM) 10,10,10,10,10,10,10,2,0.2,0.1,0.1,0.1,0.1,0.1, treatment day 13, T4 0.1 nM): 3
metamorphosis stage (individual Exp 5-5, 174 days old, total length 36.1 mm at start, c3 onward = treatment days 1,3,5,7,8,9,10,11,12,13,14,15,16,17, T4 (nM) 10,10,10,10,10,10,10,2,0.2,0.1,0.1,0.1,0.1,0.1, treatment day 14, T4 0.1 nM): 3
metamorphosis stage (individual Exp 5-5, 174 days old, total length 36.1 mm at start, c3 onward = treatment days 1,3,5,7,8,9,10,11,12,13,14,15,16,17, T4 (nM) 10,10,10,10,10,10,10,2,0.2,0.1,0.1,0.1,0.1,0.1, treatment day 15, T4 0.1 nM): 3
